Literature values as cited in article PMC7898037, “Improving mitochondria and ER stability helps eliminate upper motor neuron degeneration that occurs due to mSOD1 toxicity and TDP‐43 pathology” (Clinical and Translational Medicine, 2021).

Experiments:
[1] = test system: SOD1^G93A‐expressing PC12 cell; settings: PC12 cell‐based assay; cited from earlier work
cortical neurons = test system: cortical neurons; parameters: method as in earlier work; settings: ref 53 (compound 2), ref 54 (NU‐9); cited from earlier work
SOD1 model mouse = settings: cited from earlier work

## O=C1CC(=O)CC(c2ccc(F)cc2)C1 [compound 1]
[1]
  effect on mSOD1‐induced protein aggregation: inhibit mSOD1‐induced protein aggregation
  effect on mSOD1‐mediated toxicity: reduce mSOD1‐mediated toxicity

## O=C1CC(=O)CC(c2cc(C(F)(F)F)cc(C(F)(F)F)c2)C1 [compound 2]
Cortical neurons
  penetration into neurons: did not penetrate into neurons

## Nc1nc2ccc(OC(F)(F)F)cc2s1 [riluzole]
SOD1 model mouse
  longevity of the misfolded SOD1 (mSOD1) mouse model: failed to improve the longevity
